Measurements from US5696151A, “Compounds useful for the inhibition of the replication of HIV-1 and HIV-1 mutants” (priority 1995, dated 1997).
Values after ≈ are worked out from the molar mass of the structure shown.

Assays:
[1] = test system: 181 Tyr →Cys mutation in the RT of HIV-1 strains; settings: background, Balzarini I and II; cited from earlier work
[2] = test system: HIV-1 strains containing the 100 Leu →Ile mutation in their RT; settings: background, Balzarini I and II; cited from earlier work
HIV-1/Lys-138 = test: Inhibition of HIV-1 induced syncytium formation in CEM cells, RT mutant 138-Lys; format: cell-based; settings: Table 2B, day 4, averages of 2 to 3 independent experiments; for EC50: Human immunodeficiency virus 1, CCRF-CEM, 96 h, read-out: Antiviral Activity of Comparative Compounds EC50, 138-Lys
Procedure, shortened: (§1)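 CEM cells (≈300,000 cells/ml) were infected with about 100 CCID50 of HIV-1(IIIB) or an RT mutant strain and added to 5-fold serial dilutions of test compound. Inhibition of HIV-1-induced syncytium formation was scored microscopically on day 4 post infection.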

HIV-1/100-Ile = test: Inhibition of HIV-1 induced syncytium formation in CEM cells, RT mutant 100-Ile; format: cell-based; settings: Table 2B, day 4, averages of 2 to 3 independent experiments; for EC50: Human immunodeficiency virus 1, CCRF-CEM, 96 h, read-out: Antiviral Activity of Comparative Compounds EC50, 100-Ile
Procedure, shortened: as §1

HIV-1(IIIB) = test: Inhibition of HIV-1 induced syncytium formation in CEM cells, wild type; format: cell-based; settings: Table 2B, WT = HIV-1(IIIB), day 4, averages of 2 to 3 independent experiments; for EC50: Human immunodeficiency virus 1, IIIB, CCRF-CEM, 96 h, read-out: Antiviral Activity of Comparative Compounds EC50, WT
Procedure, shortened: as §1

HIV-1/103-Asn = test: Inhibition of HIV-1 induced syncytium formation in CEM cells, RT mutant 103-Asn; format: cell-based; settings: Human immunodeficiency virus 1, CCRF-CEM, 96 h, Table 2B, day 4, averages of 2 to 3 independent experiments, read-out: Antiviral Activity of Comparative Compounds EC50, 103-Asn
Excerpt: (§2) CEM cells were obtained from the American Tissue Cell Culture Collection (Rockville, Md.). HIV-1(IIIB) was originally obtained from the culture supernatant of persistently HIV-1-infected H9 cells and was provided by R. C. Gallo and M. Popovic (National Cancer Institute, National Institutes of Health, Bethesda, Md.). […] 67: 5353-5359 (1993); HIV-1/Lys-138 ("Lys-138") was selected for resistance against TSAO-m^3T as described in Balzarini et al, Virology 192: 246-253 (1993) and Balzarini et al, Proc. Nat. Acad. Sci. USA 90: 6952-6956 (1993); HIV-1/181-Cys ("181-Cys") was selected for resistance against pyridinone L-697,661 as described in Balzarini et al, Virology 192: 246-253 (1993); and HIV-1/188-His ("188-His") was selected for resistance against HEPT as described in Balzarini et al, Mol. Pharmocol. 44: 694-701 (1993). 188-His was then further converted to HIV-1/188-Leu "188-Leu") upon further passage in cell culture in the absence of the HEPT.
(§3) CEM cells were suspended at ≈300,000 cells per ml of culture medium and infected with approximately 100 CCID50 (CCID50 being the 50% cell culture infective dose) of HIV-1(IIIB) or one of the HIV-1 RT mutant strains described above. Then 100 μl of the infected cell suspensions was added to 200 μl microtiter plate wells containing 100 μl of appropriate serial (5-fold) dilutions of the test compounds. The inhibitory effect of the test compounds on HIV-1 induced syncytium formation in CEM cells was examined microscopically on day 4 post infection.

HIV-1/181-Cys = test: Inhibition of HIV-1 induced syncytium formation in CEM cells, RT mutant 181-Cys; format: cell-based; settings: Table 2B, day 4, averages of 2 to 3 independent experiments; for EC50: Human immunodeficiency virus 1, CCRF-CEM, 96 h, read-out: Antiviral Activity of Comparative Compounds EC50, 181-Cys
Procedure, shortened: as §1

HIV-1/188-Leu = test: Inhibition of HIV-1 induced syncytium formation in CEM cells, RT mutant 188-Leu; format: cell-based; settings: Human immunodeficiency virus 1, CCRF-CEM, 96 h, Table 2B, day 4, averages of 2 to 3 independent experiments, read-out: Antiviral Activity of Comparative Compounds EC50, 188-Leu
Excerpt: as §2, §3

in vitro = format: cell-based; settings: human, cem cells, CC50 (50% cytostatic concentration), Table 2B; CEM cell proliferation; averages of 2 to 3 independent experiments
Procedure, shortened: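 Value is the 50% cytostatic concentration, the compound concentration that inhibits CEM cell proliferation by 50%. HIV-1(IIIB) and NNRTI-resistant variants selected in culture (Lys-138, 181-Cys, 188-His, 188-Leu) were used alongside.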

HIV-1/106-Ala = test: Inhibition of HIV-1 induced syncytium formation in CEM cells, RT mutant 106-Ala; format: cell-based; settings: Table 2B, day 4, averages of 2 to 3 independent experiments; for EC50: Human immunodeficiency virus 1, CCRF-CEM, 96 h, read-out: Antiviral Activity of Comparative Compounds EC50, 106-Ala
Procedure, shortened: as §1

| Compound | resistance of 181 Tyr →Cys RT mutant viruses [1] | resistance of 100 Leu →Ile RT mutant strains [2] | EC50 (HIV-1/Lys-138) [µg/mL] | EC50 (HIV-1/100-Ile) [µg/mL] | Antiviral Activity of Comparative Compounds EC50, WT (HIV-1(IIIB)) [µg/mL] | EC50 (HIV-1/103-Asn) [µg/mL] | EC50 (HIV-1/181-Cys) [µg/mL] | EC50 (HIV-1/188-Leu) [µg/mL] | CC50 (in vitro) [µg/mL] | Antiviral Activity of Comparative Compounds EC50, 106-Ala (HIV-1/106-Ala) [µg/mL] | Antiviral Activity of Comparative Compounds EC50, 138-Lys (HIV-1/Lys-138) [µg/mL] | Antiviral Activity of Comparative Compounds EC50, 100-Ile (HIV-1/100-Ile) [µg/mL] | Antiviral Activity of Comparative Compounds EC50, 181-Cys (HIV-1/181-Cys) [µg/mL] | EC50 (HIV-1(IIIB)) [µg/mL] | EC50 (HIV-1/106-Ala) [µg/mL] |
| --- | --- | --- | --- | --- | --- | --- | --- | --- | --- | --- | --- | --- | --- | --- | --- |
| Cc1ccnc2c1NC(=O)c1cccnc1N2C1CC1 [nevirapine] | resistant |  |  |  |  |  |  |  |  |  |  |  |  |  |  |
| CC(C)=CCN1Cc2cc(Cl)cc3[nH]c(=S)n(c23)C[C@@H]1C [TIBO R82913] |  | resistant |  |  |  |  |  |  |  |  |  |  |  |  |  |
| Cc1occc1C(=S)Nc1ccc(Cl)c(C=NOC(C)(C)C)c1 [Compound 3] |  |  | 0.045 (≈ 0.128 µM) | 0.057 (≈ 0.162 µM) | 0.0065 | 0.23 (≈ 0.656 µM) | 0.08 (≈ 0.228 µM) | 0.91 (≈ 2.59 µM) | 5.8 (≈ 16.5 µM) | 0.03 |  |  |  |  |  |
| Cc1sccc1C(=O)Nc1ccc(Cl)c(C(=O)OC2CCCCC2)c1 [Compound 23] |  |  |  |  | 0.03 | ≥ 2 |  | > 2 | 5.8 (≈ 15.3 µM) | 0.22 | 0.73 | 0.7 | 0.27 |  |  |
| CSc1sccc1C(=O)Nc1ccc(Cl)c(C=NOC(C)(C)C)c1 [Compound 36] |  |  | 0.85 (≈ 2.22 µM) | 1.23 (≈ 3.21 µM) |  | 1.2 (≈ 3.13 µM) | 1.6 (≈ 4.18 µM) | > 2 | 7.8 (≈ 20.4 µM) |  |  |  |  | 0.18 (≈ 0.47 µM) | 0.85 (≈ 2.22 µM) |
| CC=CCSc1cc(NC(=S)c2ccsc2C)ccc1Cl [Compound 8] |  |  | 0.025 (≈ 0.0706 µM) | 0.032 (≈ 0.0904 µM) |  | 0.023 (≈ 0.065 µM) | 0.025 (≈ 0.0706 µM) | > 2 | 5.1 (≈ 14.4 µM) |  |  |  |  | 0.0055 (≈ 0.0155 µM) | 0.023 (≈ 0.065 µM) |
| Cc1sccc1C(=S)Nc1ccc(Cl)c(OCC2CCCC2)c1 [Compound 28] |  |  | 0.11 (≈ 0.301 µM) | 0.22 (≈ 0.601 µM) |  | 0.33 (≈ 0.902 µM) | 0.5 (≈ 1.37 µM) | > 2 | 4.3 (≈ 11.8 µM) |  |  |  |  | 0.029 (≈ 0.0792 µM) | 0.23 (≈ 0.628 µM) |
| CC(C)=CCOc1cc(NC(=O)c2ccsc2C)ccc1Cl [Compound 27] |  |  | 0.15 (≈ 0.447 µM) | 0.36 (≈ 1.07 µM) |  | 0.5 (≈ 1.49 µM) | 0.46 (≈ 1.37 µM) | > 2 | 6 (≈ 17.9 µM) |  |  |  |  | 0.01 (≈ 0.0298 µM) | 0.11 (≈ 0.328 µM) |
